# Data from patent publication US20250296948A1, “SYNTHESIS OF NUCLEOSIDE DERIVATIVES” (Nucana plc, priority 2022, published 2025).
# Legend:
# Type in all cases: physicochemical
# [1] = 6 month dry powder stability, Alpha Naphthol content by HPLC
# From the text: (§1) NUC-3373 prepared according to Example 3 and Comparative Example 4 was packed into a transparent LDPE bag which was then filled with nitrogen and tied with a strip seal. This bag was then placed into another transparent LDPE bag which was also filled with nitrogen. A silica gel packet was placed between the two bags before the outermost bag was tied with a strip seal. These bags were then placed in a triple laminated sun light barrier bag which was sealed with a heat sealer. The bags were kept in a HDPE container.
# (§2) NUC-3373 was initially assayed by HPLC after manufacture (0 months) then after 1 and 2 and/or 3 and 6 months of storage at 2-8° C., 25° C. or 40° C.
# The Alpha Naphthol content of the same batches was also determined by HPLC. The levels of the alpha naphthol impurity is a key indicator of stability of the tested material.
# [2] = Solution stability, alpha naphthol (0.60 RRT) in DMA:Saline (80:20 v/v); set-up: 0.60 RRT (Alpha Naphthol): unit not given here; conditions: 400 mg/mL in DMA:Saline (80:20 v/v)
# Protocol: Stability data is also provided in Table 4, which compares the levels of alpha naphthol (0.60 RRT) present in solutions of 400 mg/mL NUC-3373, prepared by Example 3 or 4, above, in DMA:Saline (80:20 v/v) at different temperatures measured over set periods of time. The tested solutions are suitable for infusion and injection and the temperatures and times measured are representative of the environments that solutions suitable for infusion and injection would typically be stored in.
# In Table 4 the two values provided for each temperature at each time period, separated by “/”, represent different preparations (samples) of that synthesis.
# [3] = 6 month dry powder stability, HPLC assay
# From the text: as §1, §2
compound,measurement,setting,value
"C[C@H](NP(=O)(OC[C@H]1O[C@@H](n2cc(F)c(=O)[nH]c2=O)CC1O)Oc1cccc2ccccc12)C(=O)OCc1ccccc1 (stereo partly drawn) [Example 3, Batch 1, 5-fluoro-2′-deoxyuridine-5′-O-[1-naphthyl (benzoxy-L-alaninyl)] phosphate]","Increase after 6 months, Alpha Naphthol by HPLC",[1]; 2-8 ° C.,None
same,Alpha Naphthol by HPLC (% w/w),"[1]; 2-8 ° C., 0 months",0.15 % w/w
same,Alpha Naphthol by HPLC (% w/w),"[1]; 2-8 ° C., 3 months",0.16 % w/w
same,Alpha Naphthol by HPLC (% w/w),"[1]; 2-8 ° C., 6 months",0.15 % w/w
same,"Increase after 6 months, Alpha Naphthol by HPLC",[1]; 25 ° C.,None
same,Alpha Naphthol by HPLC (% w/w),"[1]; 25 ° C., 0 months",0.15 % w/w
same,Alpha Naphthol by HPLC (% w/w),"[1]; 25 ° C., 3 months",0.15 % w/w
same,Alpha Naphthol by HPLC (% w/w),"[1]; 25 ° C., 6 months",0.14 % w/w
same,"Increase after 6 months, Alpha Naphthol by HPLC",[1]; 40 ° C.,None
same,Alpha Naphthol by HPLC (% w/w),"[1]; 40 ° C., 0 months",0.15 % w/w
same,Alpha Naphthol by HPLC (% w/w),"[1]; 40 ° C., 1 month",0.15 % w/w
same,Alpha Naphthol by HPLC (% w/w),"[1]; 40 ° C., 2 months",0.15 % w/w
same,Alpha Naphthol by HPLC (% w/w),"[1]; 40 ° C., 3 months",0.14 % w/w
same,Alpha Naphthol by HPLC (% w/w),"[1]; 40 ° C., 6 months",0.13 % w/w
same,0.60 RRT (Alpha Naphthol),"[2]; After 1 month at 2-8° C., first preparation (before ""/"")",0.07/0.07
same,0.60 RRT (Alpha Naphthol),"[2]; After 1 month at 2-8° C., second preparation (after ""/"")",0.07/0.07
same,0.60 RRT (Alpha Naphthol),"[2]; After 1 month at 25 ± 5° C., first preparation (before ""/"")",0.08/0.08
same,0.60 RRT (Alpha Naphthol),"[2]; After 1 month at 25 ± 5° C., second preparation (after ""/"")",0.08/0.08
same,0.60 RRT (Alpha Naphthol),"[2]; After 3 months at 2-8° C., first preparation (before ""/"")",0.07/0.07
same,0.60 RRT (Alpha Naphthol),"[2]; After 3 months at 2-8° C., second preparation (after ""/"")",0.07/0.07
same,0.60 RRT (Alpha Naphthol),"[2]; After 3 months at 25 ± 5° C., first preparation (before ""/"")",0.10
same,0.60 RRT (Alpha Naphthol),"[2]; After 3 months at 25 ± 5° C., second preparation (after ""/"")",0.11
same,0.60 RRT (Alpha Naphthol),"[2]; After 6 months at 2-8° C., first preparation (before ""/"")",0.07
same,0.60 RRT (Alpha Naphthol),"[2]; After 6 months at 2-8° C., second preparation (after ""/"")",0.08
same,0.60 RRT (Alpha Naphthol),"[2]; After 6 months at 25 ± 5° C., first preparation (before ""/"")",0.20
same,0.60 RRT (Alpha Naphthol),"[2]; After 6 months at 25 ± 5° C., second preparation (after ""/"")",0.22
same,0.60 RRT (Alpha Naphthol),"[2]; After 9 months at 2-8° C., first preparation (before ""/"")",0.07
same,0.60 RRT (Alpha Naphthol),"[2]; After 9 months at 2-8° C., second preparation (after ""/"")",0.08
same,0.60 RRT (Alpha Naphthol),"[2]; After 9 months at 25 ± 5° C., first preparation (before ""/"")",0.42
same,0.60 RRT (Alpha Naphthol),"[2]; After 9 months at 25 ± 5° C., second preparation (after ""/"")",0.38
same,0.60 RRT (Alpha Naphthol),"[2]; After 15 days at 2-8° C., first preparation (before ""/"")",0.07/0.07
same,0.60 RRT (Alpha Naphthol),"[2]; After 15 days at 2-8° C., second preparation (after ""/"")",0.07/0.07
same,0.60 RRT (Alpha Naphthol),"[2]; After 15 days at 25 ± 5° C., first preparation (before ""/"")",0.07
same,0.60 RRT (Alpha Naphthol),"[2]; After 15 days at 25 ± 5° C., second preparation (after ""/"")",0.08
same,0.60 RRT (Alpha Naphthol),[2]; Initial,0.07
same,"Decrease after 6 months, HPLC assay",[3]; 2-8 ° C.,None
same,HPLC assay (% w/w on anhydrous and solvent free basis),"[3]; 2-8 ° C., 0 months",100.4 % w/w
same,HPLC assay (% w/w on anhydrous and solvent free basis),"[3]; 2-8 ° C., 3 months",101.5 % w/w
same,HPLC assay (% w/w on anhydrous and solvent free basis),"[3]; 2-8 ° C., 6 months",100.4 % w/w
same,"Decrease after 6 months, HPLC assay",[3]; 25 ° C.,None
same,HPLC assay (% w/w on anhydrous and solvent free basis),"[3]; 25 ° C., 0 months",100.4 % w/w
same,HPLC assay (% w/w on anhydrous and solvent free basis),"[3]; 25 ° C., 3 months",101.1 % w/w
same,HPLC assay (% w/w on anhydrous and solvent free basis),"[3]; 25 ° C., 6 months",100.8 % w/w
same,"Decrease after 6 months, HPLC assay",[3]; 40 ° C.,None
same,HPLC assay (% w/w on anhydrous and solvent free basis),"[3]; 40 ° C., 0 months",100.4 % w/w
same,HPLC assay (% w/w on anhydrous and solvent free basis),"[3]; 40 ° C., 1 month",100.0 % w/w
same,HPLC assay (% w/w on anhydrous and solvent free basis),"[3]; 40 ° C., 2 months",101.5 % w/w
same,HPLC assay (% w/w on anhydrous and solvent free basis),"[3]; 40 ° C., 3 months",101.6 % w/w
same,HPLC assay (% w/w on anhydrous and solvent free basis),"[3]; 40 ° C., 6 months",100.7 % w/w
